Data as given in patent publication US10125118B2, “Heteroaryl compounds and their use as therapeutic drugs” (Dong-A Socio Holdings Co., Ltd., priority 2015, dated 2018).

How the values were obtained:
[1] = tested on: CD8-MerTK in Ba/F3-CDM cells; assay: In cell MER kinase assay, Ba/F3-CDM cell proliferation without IL-3 (Celltiter-Glo); format: cell-based, murine; details: 48 hours compound treatment, read-out: Cell growth inhibition (GI50)
Outline: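 Ba/F3 cells, IL-3-dependent, transfected with CD8-MerTK and grown without IL-3 in DMEM/10% FBS. IL-3-supplemented Ba/F3 cells run in parallel as a cytotoxicity control.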

[2] = biological target: human c-MER catalytic domain (Homo sapiens (Human), UniProt Q12866); assay: LanthaScreen TR-FRET kinase assay, c-MER; details: read-out: Mer TK inhibition (IC50); Biochemical IC50, TR-FRET, 10 uM ATP
Sequence of human c-MER catalytic domain (Q12866 587-858): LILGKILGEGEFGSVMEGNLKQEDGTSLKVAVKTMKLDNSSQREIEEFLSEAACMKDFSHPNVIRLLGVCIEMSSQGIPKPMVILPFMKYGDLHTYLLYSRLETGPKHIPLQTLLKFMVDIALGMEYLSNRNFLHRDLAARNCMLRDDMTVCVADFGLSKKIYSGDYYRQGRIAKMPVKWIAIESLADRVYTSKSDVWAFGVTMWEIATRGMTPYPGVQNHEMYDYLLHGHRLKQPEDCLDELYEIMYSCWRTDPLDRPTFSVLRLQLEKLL

## CC(c1ccc(-c2ccc(CO[C@H]3CCC[C@@H]3NC(=O)c3cc(-c4cncc(F)c4)cnc3N)cc2)cc1)N1CCN(C)CC1 (stereo partly drawn) [Example 230, 6-amino-5′-fluoro-N-((1S,2S)-2-((4′-(1-(4-methylpiperazin-1-yl)ethyl)-[1,1′-biphenyl]-4-yl)methoxy)cyclopentyl)-[3,3′-bipyridine]-5-carboxamide]
[1]
  GI50: < 0.1 µM
[2]
  IC50: < 0.01 µM

## CC(c1ccc(-c2ccc(CO[C@H]3CCC[C@@H]3NC(=O)c3cc(F)cnc3N)cc2)cc1)N1CCN(C)CC1 (stereo partly drawn) [Example 232, 2-amino-5-fluoro-N-((1S,2S)-2-((4′-(1-(4-methylpiperazin-1-yl)-ethyl)-[1,1′-biphenyl]-4-yl)methoxy)cyclopentyl)nicotinamide]
[1]
  GI50: 0.5 to 1 µM
[2]
  IC50: < 0.01 µM

## CC(c1ccc(-c2ccc(CO[C@H]3CCC[C@@H]3NC(=O)c3cc(C#N)cnc3N)cc2)cc1)N1CCN(C)CC1 (stereo partly drawn) [Example 233, 2-amino-5-cyano-N-((1S,2S)-2-((4′-(1-(4-methylpiperazin-1-yl)-ethyl)-[1,1′-biphenyl]-4-yl)methoxy)cyclopentyl)nicotinamide]
[1]
  GI50: 0.1 to 0.5 µM
[2]
  IC50: < 0.01 µM

## CC(c1ccc(-c2ccc(CO[C@H]3CCC[C@@H]3NC(=O)c3cccnc3N)cc2)cc1)N1CCN(C)CC1 (stereo partly drawn) [Example 235, 2-amino-N-((1S,2S)-2-((4′-(1-(4-methylpiperazin-1-yl)ethyl)-[1,1′-biphenyl]-4-yl)methoxy)cyclopentyl)nicotinamide]
[1]
  GI50: 0.5 to 1 µM
[2]
  IC50: < 0.01 µM

## CC(c1ccc(-c2ccc(CO[C@H]3CCC[C@@H]3NC(=O)c3cc(-c4cncc(F)c4)cnc3N)cc2)cc1)N1CCN(CCO)CC1 (stereo partly drawn) [Example 236, 6-amino-5′-fluoro-N-((1S,2S)-2-((4′-(1-(4-(2-hydroxyethyl)-piperazin-1-yl)ethyl)-[1,1′-biphenyl]-4-yl)methoxy)cyclopentyl)-[3,3′-bipyridine]-5-carboxamide]
[1]
  GI50: < 0.1 µM
[2]
  IC50: < 0.01 µM

## CC(c1ccc(-c2ccc(CO[C@H]3CCC[C@@H]3NC(=O)c3cc(-c4ccc(F)nc4)cnc3N)cc2)cc1)N1CCN(CCO)CC1 (stereo partly drawn) [Example 237, 6-amino-6′-fluoro-N-((1S,2S)-2-((4′-(1-(4-(2-hydroxyethyl)-piperazin-1-yl)ethyl)-[1,1′-biphenyl]-4-yl)methoxy)cyclopentyl)-[3,3′-bipyridine]-5-carboxamide]
[1]
  GI50: < 0.1 µM
[2]
  IC50: < 0.01 µM

## CC(c1ccc(-c2ccc(CO[C@H]3CCC[C@@H]3NC(=O)c3cc(-c4cccnc4F)cnc3N)cc2)cc1)N1CCN(CCO)CC1 (stereo partly drawn) [Example 238, 6-amino-2′-fluoro-N-((1S,2S)-2-((4′-(1-(4-(2-hydroxyethyl)-piperazin-1-yl)ethyl)-[1,1′-biphenyl]-4-yl)methoxy)cyclopentyl)-[3,3′-bipyridine]-5-carboxamide]
[1]
  GI50: < 0.1 µM
[2]
  IC50: < 0.01 µM

## CN1CCC(Cc2ccc(-c3ccc(CO[C@H]4CCC[C@@H]4NC(=O)c4cc(-c5cnn(C)c5)cnc4N)cc3)cc2)CC1 [Example 239, 2-amino-5-(1-methyl-1H-pyrazol-4-yl)-N-((1S,2S)-2-((4′-((1-methylpiperidin-4-yl)methyl)-[1,1′-biphenyl]-4-yl)methoxy)cyclopentyl)nicotinamide]
[1]
  GI50: < 0.1 µM
[2]
  IC50: < 0.01 µM

## Cn1cc(-c2cnc(N)c(C(=O)N[C@H]3CCC[C@@H]3OCc3ccc(-c4ccc(CC5CCN(CCO)CC5)cc4)cc3)c2)cn1 [Example 240, 2-amino-N-((1S,2S)-2-((4′-((1-(2-hydroxyethyl)piperidin-4-yl)-methyl)-[1,1′-biphenyl]-4-yl)methoxy)cyclopentyl)-5-(1-methyl-1H-pyrazol-4-yl)-nicotinamide]
[1]
  GI50: < 0.1 µM
[2]
  IC50: < 0.01 µM

## COC(=O)CN1CCC(Cc2ccc(-c3ccc(CO[C@H]4CCC[C@@H]4NC(=O)c4cc(-c5cnn(C)c5)cnc4N)cc3)cc2)CC1 [Example 241, Methyl 2-(4-((4′-((((1S,2S)-2-(2-amino-5-(1-methyl-1H-pyrazol-4-yl)nicotinamido)cyclopentyl)oxy)methyl)-[1,1′-biphenyl]-4-yl)methyl)piperidin-1-yl)-acetate]
[1]
  GI50: 0.5 to 1 µM
[2]
  IC50: < 0.01 µM

## Cn1cc(-c2cnc(N)c(C(=O)N[C@H]3CCC[C@@H]3OCc3ccc(-c4ccc(CC5CCN(CC(N)=O)CC5)cc4)cc3)c2)cn1 [Example 242, 2-amino-N-((1S,2S)-2-((4′-((1-(2-amino-2-oxoethyl)piperidin-4-yl)methyl)-[1,1′-biphenyl]-4-yl)methoxy)cyclopentyl)-5-(1-methyl-1H-pyrazol-4-yl)-nicotinamide]
[1]
  GI50: < 0.1 µM
[2]
  IC50: < 0.01 µM

## CN(C)CCCOc1ccc(-c2ccc(CO[C@H]3CCC[C@@H]3NC(=O)c3cc(-c4cnn(C)c4)cnc3N)cc2)cc1 [Example 246, 2-amino-N-((1S,2S)-2-((4′-(3-(dimethylamino)propoxy)-[1,1′-biphenyl]-4-yl)methoxy)cyclopentyl)-5-(1-methyl-M-pyrazol-4-yl)nicotinamide]
[1]
  GI50: 0.1 to 0.5 µM
[2]
  IC50: < 0.01 µM

## CN1CCC(Oc2ccc(-c3ccc(CO[C@H]4CCC[C@@H]4NC(=O)c4cc(-c5cnn(C)c5)cnc4N)cc3)cc2)CC1 [Example 247, 2-amino-5-(1-methyl-1H-pyrazol-4-yl)-N-((1S,2S)-2-((4′-((1-methylpiperidin-4-yl)oxy)-[1,1′-biphenyl]-4-yl)methoxy)cyclopentyl)nicotinamide]
[1]
  GI50: 0.1 to 0.5 µM
[2]
  IC50: < 0.01 µM

## Cn1cc(-c2cnc(N)c(C(=O)N[C@H]3CCC[C@@H]3OCc3ccc(C#CCCO)cc3)c2)cn1 [Example 249, 2-amino-N-((1S,2S)-2-((4-(4-hydroxybut-1-yn-1-yl)benzyl)oxy)-cyclopentyl)-5-(1-methyl-1H-pyrazol-4-yl)nicotinamide]
[1]
  GI50: > 1 µM
[2]
  IC50: < 0.01 µM

## Cn1cc(-c2cnc(N)c(C(=O)N[C@H]3CCC[C@@H]3OCc3ccc(C#CCCCO)cc3)c2)cn1 [Example 250, 2-amino-N-((1S,2S)-2-((4-(5-hydroxypent-1-yn-1-yl)-benzyl)oxy)-cyclopentyl)-5-(1-methyl-1H-pyrazol-4-yl)nicotinamide]
[1]
  GI50: 0.1 to 0.5 µM
[2]
  IC50: < 0.01 µM

## Cn1cc(-c2cnc(N)c(C(=O)N[C@H]3CCC[C@@H]3OCc3ccc(C#CCCCCO)cc3)c2)cn1 [Example 251, 2-amino-N-((1S,2S)-2-((4-(6-hydroxyhex-1-yn-1-yl)benzyl)oxy)-cyclopentyl)-5-(1-methyl-1H-pyrazol-4-yl)nicotinamide]
[1]
  GI50: > 1 µM
[2]
  IC50: < 0.01 µM

## Cc1ccc(CO[C@H]2CCC[C@@H]2NC(=O)c2cc(-c3ccc(C(=O)NC4CCN(C)CC4)cc3)cnc2N)cc1C [Example 318, 2-amino-N-((1S,2S)-2-((3,4-dimethylbenzyl)oxy)cyclopentyl)-5-(4-((1-methylpiperidin-4-yl)carbamoyl)phenyl)nicotinamide]
[1]
  GI50: 0.5 to 1 µM
[2]
  IC50: < 0.01 µM

## Cc1ccc(CO[C@H]2CCC[C@@H]2NC(=O)c2cc(-c3ccc(CN4CCC(N5CCCC5)CC4)c(F)c3)cnc2N)cc1C [Example 325, 2-amino-N-((1S,2S)-2-((3,4-dimethylbenzyl)oxy)cyclopentyl)-5-(3-fluoro-4-((4-(pyrrolidin-1-yl)piperidin-1-yl)methyl)phenyl)nicotinamide]
[1]
  GI50: > 1 µM
[2]
  IC50: < 0.01 µM

## Cc1ccc(CO[C@H]2CCC[C@@H]2NC(=O)c2cc(-c3ccc(CN4CCC(O)CC4)cc3)cnc2N)cc1C [Example 328, 2-amino-N-((1S,2S)-2-((3,4-dimethylbenzyl)oxy)cyclopentyl)-5-(4-((4-hydroxypiperidin-1-yl)methyl)phenyl)nicotinamide]
[1]
  GI50: 0.5 to 1 µM
[2]
  IC50: < 0.01 µM
